The results in this text go back to ChEMBL document CHEMBL1127857, “Antitumor agents. 155. Synthesis and biological evaluation of 3',6,7-substituted 2-phenyl-4-quinolones as antimicrotubule agents” (J Med Chem, 1994).

The target of assay [1] is Tubulin (Bos taurus, UniProt Q6B856+Q862L2+Q862F3). As to the kind of experiment: Inhibition of bovine tubulin polymerization. It is filed as functional.
Assay [2] addresses Tubulin (Bos taurus) (UniProt Q6B856+Q862L2+Q862F3). As to the kind of experiment: Inhibition of colchicine binding to tubulin was evaluated only when polymerization IC50 <=1.0 uM. It is filed as protein assay.
Assay [3] has as its system OVCAR-4. As to the kind of experiment: Tested for in vitro tumor cell growth inhibition of ovarian cancer cell line OVCAR-4. It is filed as functional. The conditions noted are these: Homo sapiens.
The test system of assay [4] is KM-20L2. In words: Tested for in vitro tumor cell growth inhibition of colon cancer cell line […]. The conditions noted are these: Homo sapiens. In kind it is functional.
In assay [5] the test system is DU-145. As to the kind of experiment: Tested for in vitro tumor cell growth inhibition of prostate cancer cell line DU-145. In kind it is functional. The settings on record: Homo sapiens.
Assay [6] concerns K562. As to the kind of experiment: Tested for in vitro tumor cell growth inhibition of leukemia cell line K-562. In kind it is functional. The conditions noted are these: Homo sapiens.
The test system of assay [7] is SF-268. In words: Tested for in vitro tumor cell growth inhibition of CNS tumor cell line SF-268. It is filed as functional. The settings on record: Homo sapiens.
Assay [8] deals with RXF 393. In words: Tested for in vitro tumor cell growth inhibition of renal cancer cell line RXF-393. The settings on record: Homo sapiens. In kind it is functional.
For assay [9], the system named is HCT-116. In words: Tested for in vitro tumor cell growth inhibition of colon cancer cell line HCT116. In kind it is functional. The settings on record: Homo sapiens.
In assay [10] the test system is OVCAR-3. In words: Tested for in vitro tumor cell growth inhibition of ovarian cancer cell line OVCAR-3. It is filed as functional. The settings on record: Homo sapiens.
Assay [11] concerns NCI-H226. As to the kind of experiment: Tested for in vitro tumor cell growth inhibition of non-small cell lung cancer cell line NCI-H226. In kind it is functional. The settings on record: Homo sapiens.
Assay [12] has as its system MDA-N. In words: Tested for in vitro tumor cell growth inhibition of breast cancer cell line MDA-N. In kind it is functional. The conditions noted are these: Homo sapiens.
For assay [13], the system named is SF-295. In words: Tested for in vitro tumor cell growth inhibition of CNS tumor cell line SF-295. It is filed as functional. The conditions noted are these: Homo sapiens.
For assay [14], the system named is SK-MEL-5. As to the kind of experiment: Tested for in vitro tumor cell growth inhibition of melanoma cell line SK-Mel-5. It is filed as functional. The conditions noted are these: Homo sapiens.

As to `CN(C)c1cccc(-c2cc(O)c3cc4c(cc3n2)OCO4)c1`, the IC50 in assay [1] came out at 700 nM. In [2], this compound registered an inhibition of 29%.

`CC(=O)Nc1ccc2nc(-c3cccc(Cl)c3)cc(O)c2c1` showed an IC50 in assay [1] of 2300 nM. This compound also had a GI50 in assay [3] above 100000 nM.

`COc1cccc(-c2cc(O)c3cc(N)ccc3n2)c1` came in with an IC50 in [1] of 8700 nM. This compound also had a GI50 in assay [4] of 3470 nM.

Take `COc1cccc(-c2cc(O)c3cc(N4CCCC4)ccc3n2)c1`: the GI50 in assay [5], in assay [4], in assay [6], in assay [7], in [8] and in [9] was below 1 nM in each case. Further, the GI50 in assay [10] was below 1 nM; in [11] it was below 1 nM; in [12], below 1 nM; in assay [13], below 1 nM; in assay [14], below 1 nM; in [3], 2000 nM.

As to `Nc1ccc2nc(-c3cccc(C(F)(F)F)c3)cc(O)c2c1`, the GI50 was 43700 nM in [5], 34700 nM in assay [4] and 52500 nM in assay [9]. The compound also had an IC50 in assay [1] above 40000 nM.

As for `COc1cccc(-c2cc(O)c3cc(NC(C)=O)ccc3n2)c1`, the IC50 in assay [1] was 2100 nM. Also, it took 5500 nM to inhibit growth in assay [7] by half (GI50).

On to `Oc1cc(-c2cccc(Br)c2)nc2cc3c(cc12)OCO3`, for which the IC50 in [1] worked out at 530 nM. Moreover, the GI50 in [4] is 3090 nM; in [6], 3470 nM; in assay [7], 3020 nM; in [8], 2400 nM; in assay [9] it was 3390 nM; in assay [10], 4270 nM. Moreover, the GI50 in [11] is 3800 nM; in [13], 331 nM; in assay [14], 4370 nM; in assay [3], above 100000 nM. The compound further had an inhibition in assay [2] of 26%.

Take `COc1cccc(-c2cc(O)c3cc(N4CCOCC4)ccc3n2)c1`: the GI50 in assay [5] was 43.6 nM; in assay [4], 33.9 nM; in assay [6], 24.6 nM; in [7], 53.7 nM; in [9], 26.9 nM; in [10], 19.9 nM. For the same compound, the GI50 was 33.9 nM in assay [11]; 8.32 nM in [12]; 49 nM in assay [13]; 35.5 nM in assay [14]; 6310 nM in assay [3]. This compound also gave a half-maximal inhibitory concentration (IC50) in [1] of 360 nM. The compound further showed an inhibition in [2] of 43%.

With `COc1cc([C@@H]2c3cc4c(cc3[C@H](O)[C@H]3COC(=O)[C@H]23)OCO4)cc(OC)c1OC`, the inhibition in assay [2] came out at 84%.

The compound `COc1cccc(-c2cc(O)c3cc4c(cc3n2)OCO4)c1` registered an IC50 in assay [1] of 570 nM. This compound also displayed an inhibition in assay [2] of 39%.

For `COc1cccc(-c2cc(O)c3cc(N4CCN(C)CC4)ccc3n2)c1`, the GI50 in assay [5] was 2510 nM; in assay [4], 1510 nM; in assay [6], 537 nM; in [7], 1860 nM; in assay [8] it was 457 nM; in assay [9], 437 nM. The GI50 in assay [11] was 1510 nM; in [12], 200 nM; in [13] it was 1820 nM; in [14] it was 912 nM; in [3] it was above 10000 nM. In addition, in assay [1], the IC50 was 14000 nM.

On to `CCOc1cccc(-c2cc(O)c3cc4c(cc3n2)OCO4)c1`, for which the GI50 was 251 nM in assay [5]; 182 nM in assay [4]; 44.7 nM in assay [6]; 269 nM in [7]; 275 nM in assay [8]; 174 nM in assay [9]. Further, the GI50 in assay [10] was 166 nM; in assay [11], 324 nM; in assay [12] it was 17.8 nM; in assay [13], 64.6 nM; in assay [14] it was 191 nM. This compound had an IC50 in assay [1] of 470 nM. The same compound registered an inhibition in assay [2] of 40%.

`Oc1cc(-c2ccccc2)nc2cc3c(cc12)OCO3`: the IC50 in [1] was determined as 630 nM. In assay [2], this compound gave an inhibition of 26%.

As for `CC(=O)Nc1ccc2nc(-c3cccc(F)c3)cc(O)c2c1`, the GI50 is 25700 nM in assay [7] and 38900 nM in [13].

As to `COc1cccc(-c2cc(O)c3cc(Cl)ccc3n2)c1`, in [1], the IC50 is 700 nM. This compound also gave an inhibition in [2] of 16%.

Compound `Oc1cc(-c2cccc(C(F)(F)F)c2)nc2cc3c(cc12)OCO3` had an IC50 in assay [1] of 820 nM. The same compound showed a GI50 in assay [4] of 1380 nM. In addition, in [2], the inhibition was found to be 5%.

In the case of `Oc1cc(-c2cccc(F)c2)nc2cc3c(cc12)OCO3`, the IC50 in [1] was 530 nM. Further, the GI50 in assay [6] was 339 nM; in assay [7], 661 nM; in [9] it was 219 nM; in assay [10], 288 nM; in [11], 955 nM; in [13], 141 nM. Besides, the concentration for 50% growth inhibition (GI50) in assay [14] is 269 nM. This compound also came in with an inhibition in [2] of 51%.

`COc1ccc(CCc2cc(OC)c(OC)c(OC)c2)cc1O` registered an IC50 in assay [1] of 630 nM. This lies in the sub-micromolar range.

As for `Oc1cc(-c2cccc(OC(F)(F)F)c2)nc2cc3c(cc12)OCO3`, the GI50 was 45.7 nM in assay [5]; 36.3 nM in assay [4]; 36.3 nM in assay [6]; 40.7 nM in assay [8]; 14.1 nM in assay [9]; 63.1 nM in assay [10]. The GI50 in assay [11] is 195 nM; in [12] it was below 10 nM; in assay [13] it was 25.7 nM; in assay [14], 170 nM; in assay [3], 25.7 nM. In [1], this compound had an IC50 of 500 nM. For the same compound, the inhibition in assay [2] was 40%.

In assay [1], `Oc1cccc(-c2cc(O)c3cc4c(cc3n2)OCO4)c1` registered an IC50 of 470 nM. The GI50 in [4] was 3310 nM; in assay [6], 724 nM; in [7] it was 2290 nM; in assay [9], 1820 nM; in assay [13], 5500 nM; in assay [14], 1480 nM. In assay [2], this compound displayed an inhibition of 26%.

In assay [1], `CNc1cccc(-c2cc(O)c3cc4c(cc3n2)OCO4)c1` showed an IC50 of 650 nM. Moreover, the GI50 in [4] was 331 nM; in assay [6], 398 nM; in assay [7] it was 5500 nM; in assay [8], 363 nM; in [9], 245 nM; in [10], 339 nM. Moreover, the GI50 in assay [11] was 537 nM; in assay [13], 324 nM; in assay [14] it was 447 nM. Further, in [2], the inhibition came out at 17%.

As for `Nc1ccc2nc(-c3cccc(Cl)c3)cc(O)c2c1`, the IC50 in [1] stood at 6100 nM. The results for the GI50 in assay [4] and in assay [3] were 3160 nM and above 100000 nM, respectively.

As for `Oc1cc(-c2cccc(OC(F)(F)F)c2)nc2ccc(N3CCCC3)cc12`, in [1], the IC50 was found to be 720 nM. This compound registered an inhibition in [2] of 58%.

On to `Nc1cccc(-c2cc(O)c3cc4c(cc3n2)OCO4)c1`, for which, in assay [1], the IC50 came out at 730 nM. Also, the GI50 was 708 nM in [4]; 891 nM in assay [6]; 759 nM in assay [7]; 603 nM in [8]; 479 nM in [9]; 2190 nM in [11]. For the same compound, the GI50 is 2400 nM in [13], 933 nM in assay [14] and 38900 nM in [3]. Besides, the inhibition in [2] was found to be 16%.

Consider `COc1cccc(-c2cc(O)c3cc(N(C)C)ccc3n2)c1`, for which the GI50 in assay [5] was 34.7 nM; in [4], 4.57 nM; in assay [6], 8.91 nM; in [7] it was 43.6 nM; in assay [8], 18.6 nM; in assay [10], 15.1 nM. In addition, the GI50 was 44.7 nM in assay [11]; 1.7 nM in assay [12]; 15.5 nM in [13]; 25.7 nM in [14]; 5500 nM in [3]. The same compound gave an IC50 in assay [1] of 380 nM. In assay [2], the inhibition was 14%.

For the compound `Oc1cc(-c2cccc(OCc3ccccc3)c2)nc2cc3c(cc12)OCO3`, the GI50 in [5] was 1100 nM; in [4] it was 224 nM; in assay [6] it was 363 nM; in assay [7] it was 12900 nM; in [8], 407 nM; in assay [9], 389 nM. For the same compound, the GI50 is 245 nM in assay [10]; 229 nM in assay [11]; 145 nM in [12]; 447 nM in assay [13]; 282 nM in assay [14]. In [1], the IC50 was 450 nM. In assay [2], this compound returned an inhibition of 26%.

Take `Oc1cc(-c2cccc(Cl)c2)nc2cc3c(cc12)OCO3`: in [1], the IC50 came to 370 nM. For the same compound, the GI50 in assay [4] was 269 nM; in [14] it was 209 nM; in assay [3], above 75900 nM. In [2], this compound came in with an inhibition of 45%.

Broadly, the IC50 is the concentration that inhibits the measured activity by half. The term inhibition denotes the relative decrease from the control value, in per cent. Low readings indicate little suppression, high ones strong suppression. The GI50 is the concentration at which growth is held to half of that of the control.
